Measurements: the NIST ThermoML archive (doi:10.1016/j.jct.2017.10.004)
± gives the expanded uncertainty stated by the source.

Assay: xn = mol fraction of the nth substance listed
Details: 100 kPa, Liquid; for electrical conductivity: Alternating current cell with electrodes; for viscosity: Capillary tube (Ostwald / Ubbelohde) method; for mass density: Vibrating tube method

Cn1cc[n+](C)c1.O=S(=O)([N-]S(=O)(=O)C(F)(F)F)C(F)(F)F [1,3-dimethylimidazolium bis((trifluoromethyl)sulfonyl)amide] + O=C1CCCO1
Details	electrical conductivity [S/m]	mass density [kg/m3]	viscosity [mPa·s]
298.15 K, x1 = 0.05124	1.13 ± 0.037	1190.03 ± 4.9	2.27 ± 0.09
298.15 K, x1 = 0.09948	1.58 ± 0.048	1240.94 ± 4.8	2.86 ± 0.12
298.15 K, x1 = 0.1551	1.75 ± 0.052	1289.73 ± 4.8	3.61 ± 0.15
298.15 K, x1 = 0.2007	1.77 ± 0.053	1323.77 ± 4.7	4.44 ± 0.18
298.15 K, x1 = 0.2991	1.73 ± 0.052	1383.3 ± 4.7	6.56 ± 0.27
298.15 K, x1 = 0.4002	1.6 ± 0.048	1430.37 ± 4.7	9.39 ± 0.38
298.15 K, x1 = 0.4998	1.47 ± 0.044	1467.09 ± 4.7	12.79 ± 0.52
298.15 K, x1 = 0.6127	1.29 ± 0.039	1500.46 ± 4.7	17.69 ± 0.72
298.15 K, x1 = 0.7009	1.17 ± 0.035	1522 ± 4.7	22.05 ± 0.9
298.15 K, x1 = 0.8002	1.05 ± 0.032	1542.63 ± 4.7	27.52 ± 1.1
298.15 K, x1 = 0.8997	0.905 ± 0.027	1560.16 ± 4.7	33.41 ± 1.4
298.15 K, x1 = 1	0.774 ± 0.023	1575.42 ± 4.7	39.43 ± 1.6
303.15 K, x1 = 0.05124	1.22 ± 0.04	1185.01 ± 4.9	2.08 ± 0.09
303.15 K, x1 = 0.09948	1.72 ± 0.052	1235.89 ± 4.8	2.61 ± 0.11
303.15 K, x1 = 0.1551	1.9 ± 0.057	1284.67 ± 4.8	3.24 ± 0.13
303.15 K, x1 = 0.2007	1.94 ± 0.058	1318.66 ± 4.7	4 ± 0.16
303.15 K, x1 = 0.2991	1.9 ± 0.057	1378.16 ± 4.7	5.81 ± 0.24
303.15 K, x1 = 0.4002	1.76 ± 0.053	1425.2 ± 4.7	8.35 ± 0.34
303.15 K, x1 = 0.4998	1.63 ± 0.049	1461.93 ± 4.7	11.04 ± 0.45
303.15 K, x1 = 0.6127	1.45 ± 0.044	1495.28 ± 4.7	15.09 ± 0.61
303.15 K, x1 = 0.7009	1.32 ± 0.04	1516.83 ± 4.7	18.61 ± 0.76
303.15 K, x1 = 0.8002	1.19 ± 0.036	1537.44 ± 4.7	22.9 ± 0.93
303.15 K, x1 = 0.8997	1.04 ± 0.031	1554.97 ± 4.7	27.66 ± 1.1
303.15 K, x1 = 1	0.915 ± 0.027	1570.25 ± 4.7	32.51 ± 1.3
308.15 K, x1 = 0.05124	1.32 ± 0.043	1180.03 ± 4.9	1.85 ± 0.08
308.15 K, x1 = 0.09948	1.85 ± 0.056	1230.85 ± 4.8	2.39 ± 0.1
308.15 K, x1 = 0.1551	2.06 ± 0.062	1279.57 ± 4.8	3.02 ± 0.12
308.15 K, x1 = 0.2007	2.09 ± 0.063	1313.53 ± 4.7	3.62 ± 0.15
308.15 K, x1 = 0.2991	2.07 ± 0.062	1372.98 ± 4.7	5.23 ± 0.21
308.15 K, x1 = 0.4002	1.93 ± 0.058	1419.99 ± 4.7	7.3 ± 0.3
308.15 K, x1 = 0.4998	1.79 ± 0.054	1456.71 ± 4.7	9.7 ± 0.4
308.15 K, x1 = 0.6127	1.61 ± 0.048	1490.05 ± 4.7	12.98 ± 0.53
308.15 K, x1 = 0.7009	1.47 ± 0.044	1511.6 ± 4.7	16 ± 0.65
308.15 K, x1 = 0.8002	1.34 ± 0.04	1532.21 ± 4.7	19.53 ± 0.79
308.15 K, x1 = 0.8997	1.18 ± 0.035	1549.75 ± 4.7	23.46 ± 0.95
308.15 K, x1 = 1	1.06 ± 0.032	1565.01 ± 4.7	27.47 ± 1.1
313.15 K, x1 = 0.05124	1.4 ± 0.046	1175.06 ± 4.9	1.71 ± 0.07
313.15 K, x1 = 0.09948	1.98 ± 0.06	1225.8 ± 4.8	2.2 ± 0.09
313.15 K, x1 = 0.1551	2.19 ± 0.066	1274.45 ± 4.8	2.77 ± 0.11
313.15 K, x1 = 0.2007	2.25 ± 0.068	1308.37 ± 4.7	3.3 ± 0.14
313.15 K, x1 = 0.2991	2.23 ± 0.067	1367.77 ± 4.7	4.7 ± 0.19
313.15 K, x1 = 0.4002	2.09 ± 0.063	1414.76 ± 4.7	6.5 ± 0.27
313.15 K, x1 = 0.4998	1.95 ± 0.059	1451.46 ± 4.7	8.6 ± 0.35
313.15 K, x1 = 0.6127	1.76 ± 0.053	1484.8 ± 4.7	11.46 ± 0.47
313.15 K, x1 = 0.7009	1.61 ± 0.048	1506.34 ± 4.7	13.89 ± 0.56
313.15 K, x1 = 0.8002	1.48 ± 0.045	1526.95 ± 4.7	16.86 ± 0.68
313.15 K, x1 = 0.8997	1.32 ± 0.04	1544.49 ± 4.7	20.08 ± 0.82
313.15 K, x1 = 1	1.2 ± 0.036	1559.73 ± 4.7	23.43 ± 0.95
318.15 K, x1 = 0.05124	1.5 ± 0.049	1170.08 ± 4.9	1.62 ± 0.07
318.15 K, x1 = 0.09948	2.12 ± 0.065	1220.75 ± 4.8	2.04 ± 0.08
318.15 K, x1 = 0.1551	2.35 ± 0.071	1269.35 ± 4.8	2.57 ± 0.11
318.15 K, x1 = 0.2007	2.42 ± 0.073	1303.25 ± 4.7	3.03 ± 0.12
318.15 K, x1 = 0.2991	2.4 ± 0.072	1362.59 ± 4.7	4.27 ± 0.17
318.15 K, x1 = 0.4002	2.25 ± 0.067	1409.55 ± 4.7	5.81 ± 0.24
318.15 K, x1 = 0.4998	2.12 ± 0.064	1446.23 ± 4.7	7.64 ± 0.31
318.15 K, x1 = 0.6127	1.92 ± 0.058	1479.57 ± 4.7	10.05 ± 0.41
318.15 K, x1 = 0.7009	1.77 ± 0.053	1501.11 ± 4.7	12.18 ± 0.5
318.15 K, x1 = 0.8002	1.65 ± 0.049	1521.73 ± 4.7	14.75 ± 0.6
318.15 K, x1 = 0.8997	1.49 ± 0.045	1539.27 ± 4.7	17.45 ± 0.71
318.15 K, x1 = 1	1.35 ± 0.041	1554.49 ± 4.7	20.25 ± 0.82
323.15 K, x1 = 0.05124	1.59 ± 0.052	1165.1 ± 4.9	1.52 ± 0.06
323.15 K, x1 = 0.09948	2.25 ± 0.069	1215.71 ± 4.8	1.89 ± 0.08
323.15 K, x1 = 0.1551	2.51 ± 0.076	1264.27 ± 4.8	2.39 ± 0.1
323.15 K, x1 = 0.2007	2.59 ± 0.078	1298.14 ± 4.7	2.79 ± 0.11
323.15 K, x1 = 0.2991	2.59 ± 0.078	1357.45 ± 4.7	3.89 ± 0.16
323.15 K, x1 = 0.4002	2.45 ± 0.074	1404.4 ± 4.7	5.3 ± 0.22
323.15 K, x1 = 0.4998	2.31 ± 0.069	1441.07 ± 4.7	6.82 ± 0.28
323.15 K, x1 = 0.6127	2.11 ± 0.063	1474.41 ± 4.7	8.92 ± 0.36
323.15 K, x1 = 0.7009	1.96 ± 0.059	1495.96 ± 4.7	10.71 ± 0.44
323.15 K, x1 = 0.8002	1.82 ± 0.055	1516.59 ± 4.7	12.9 ± 0.52
323.15 K, x1 = 0.8997	1.67 ± 0.05	1534.13 ± 4.7	15.17 ± 0.62
323.15 K, x1 = 1	1.51 ± 0.045	1549.34 ± 4.7	17.72 ± 0.72
